Measured values: article PMC11012124, “Synthesis of Novel Triazine-Based Chalcones and 8,9-dihydro-7H-pyrimido[4,5-b][1,4]diazepines as Potential Leads in the Search of Anticancer, Antibacterial and Antifungal Agents” (International Journal of Molecular Sciences, 2024)

How the values were obtained:
786-0 = experiment: cells; settings: Homo sapiens, 786-0, 48 h; for CC50: read-out: LC50
UO-31 = experiment: cells; settings: Homo sapiens, UO-31, 48 h; for CC50: read-out: LC50
MDA-MB-231/ATCC = experiment: cells; settings: Homo sapiens, MDA-MB-231, 48 h; for CC50: read-out: LC50
UACC-62 = experiment: cells; settings: Homo sapiens, UACC-62, 48 h; for CC50: read-out: LC50
PC-3 = experiment: cells; settings: Homo sapiens, PC-3, 48 h; for CC50: read-out: LC50
LOX IMVI = experiment: cells; settings: Homo sapiens, 48 h; for CC50: read-out: LC50, LOX IMVI, 48 h
HCT-15 = experiment: cells; settings: Homo sapiens, HCT-15, 48 h; for CC50: read-out: LC50
HT29 = experiment: cells; settings: Homo sapiens, HT-29, 48 h; for CC50: read-out: LC50
MDA-MB-468 = experiment: cells; settings: Homo sapiens, MDA-MB-468, 48 h; for CC50: read-out: LC50
ACHN = experiment: cells; settings: Homo sapiens, 48 h; for CC50: read-out: LC50
COLO 205 = experiment: cells; settings: Homo sapiens, COLO 205, 48 h; for CC50: read-out: LC50
SNB-19 = experiment: cells; settings: Homo sapiens, SNB-19, 48 h; for CC50: read-out: LC50
OVCAR-3 = experiment: cells; settings: Homo sapiens, OVCAR-3, 48 h; for CC50: read-out: LC50
A498 = experiment: cells; settings: Homo sapiens, A498, 48 h; for CC50: read-out: LC50
HCC-2998 = experiment: cells; settings: Homo sapiens, HCC 2998, 48 h; for CC50: read-out: LC50
HCT-116 = experiment: cells; settings: Homo sapiens, HCT-116, 48 h; for CC50: read-out: LC50
UACC-257 = experiment: cells; settings: Homo sapiens, UACC-257, 48 h; for CC50: read-out: LC50
NCI-H226 = experiment: cells; settings: Homo sapiens, NCI-H226, 48 h; for CC50: read-out: LC50
EKVX = experiment: cells; settings: Homo sapiens, 48 h; for CC50: read-out: LC50
M14 = experiment: cells; settings: Homo sapiens, M14, 48 h; for CC50: read-out: LC50
RPMI-8226 = experiment: cells; settings: Homo sapiens, RPMI-8226, 48 h; for CC50: read-out: LC50
HOP-62 = experiment: cells; settings: Homo sapiens, HOP-62, 48 h; for CC50: read-out: LC50
SF-295 = experiment: cells; settings: Homo sapiens, SF-295, 48 h; for CC50: read-out: LC50
BT-549 = experiment: cells; settings: Homo sapiens, BT-549, 48 h; for CC50: read-out: LC50
SF-539 = experiment: cells; settings: Homo sapiens, SF-539, 48 h; for CC50: read-out: LC50, SF-539, 48 h
NCI-H23 = experiment: cells; settings: Homo sapiens, NCI-H23, 48 h; for CC50: read-out: LC50
U251 = experiment: cells; settings: Homo sapiens, U-251, 48 h; for GI50: U251, 48 h; for CC50: read-out: LC50
SF-268 = experiment: cells; settings: Homo sapiens, SF-268, 48 h; for CC50: read-out: LC50
HOP-92 = experiment: cells; settings: Homo sapiens, HOP-92, 48 h; for CC50: read-out: LC50
RXF 393 = experiment: cells; settings: Homo sapiens, RXF 393, 48 h; for CC50: read-out: LC50
SNB-75 = experiment: cells; settings: Homo sapiens, SNB-75, 48 h; for CC50: read-out: LC50
SK-MEL-5 = experiment: cells; settings: Homo sapiens, SK-MEL-5, 48 h; for CC50: read-out: LC50
MOLT-4 = experiment: cells; settings: Homo sapiens, MOLT-4, 48 h; for CC50: read-out: LC50
60 cancer cell lines = experiment: NCI-60 one-dose screen (10 μM); type: cell-based; settings: Homo sapiens; one dose of 10 μM, mean over 60 cancer cell lines; read-out: Mean Growth Percent (MGP)
Excerpt: Additionally, the mean of the growth percentages (MGP) of each compound against all the 60 cancer cell lines is also reported, which is used as one of the selection criteria to continue with tests at five concentration doses.

NCI-H322M = experiment: cells; settings: Homo sapiens, 48 h; for CC50: read-out: LC50
HS 578T = experiment: cells; settings: Homo sapiens, 48 h; for CC50: read-out: LC50
A549/ATCC = experiment: cells; settings: Homo sapiens, A549, 48 h; for CC50: read-out: LC50

CN(C)c1nc(NCCNS(=O)(=O)c2ccc(C(=O)/C=C/c3ccc(F)cc3)cc2)nc(Nc2ccc(F)cc2)n1 [24f]
GI50 (786-0): 2.56 µM | CC50 (786-0): 6.3 µM | GI50 (UO-31): 2.9 µM | CC50 (UO-31): 11.9 µM | GI50 (MDA-MB-231/ATCC): 2.64 µM | CC50 (MDA-MB-231/ATCC): 8.39 µM | GI50 (UACC-62): 3.57 µM | CC50 (UACC-62): 14.6 µM | GI50 (PC-3): 2.76 µM | CC50 (PC-3): 10.6 µM | GI50 (LOX IMVI): 1.66 µM | CC50 (LOX IMVI): 3.07 µM | GI50 (HCT-15): 1.99 µM | CC50 (HCT-15): 4.28 µM | GI50 (HT29): 1.9 µM | CC50 (HT29): 3.65 µM | GI50 (MDA-MB-468): 2.55 µM | CC50 (MDA-MB-468): 8.09 µM | GI50 (ACHN): 3.13 µM | CC50 (ACHN): 10.9 µM | GI50 (COLO 205): 2.38 µM | CC50 (COLO 205): 6.56 µM | GI50 (SNB-19): 4.58 µM | CC50 (SNB-19): 16.8 µM | GI50 (OVCAR-3): 1.74 µM | CC50 (OVCAR-3): 3.24 µM | GI50 (A498): 6.21 µM | CC50 (A498): 19.3 µM | GI50 (HCC-2998): 1.8 µM | CC50 (HCC-2998): 3.45 µM | GI50 (HCT-116): 1.6 µM | CC50 (HCT-116): 3.01 µM | GI50 (UACC-257): 3.61 µM | CC50 (UACC-257): 15.2 µM | GI50 (NCI-H226): 3.41 µM | CC50 (NCI-H226): 16.4 µM | GI50 (EKVX): 2.95 µM | CC50 (EKVX): 10.9 µM | GI50 (M14): 2.6 µM | CC50 (M14): 8.28 µM | GI50 (RPMI-8226): 2.42 µM | CC50 (RPMI-8226): 6.92 µM | GI50 (HOP-62): 8.39 µM | CC50 (HOP-62): 23.5 µM | GI50 (SF-295): 3.4 µM | CC50 (SF-295): 13 µM | GI50 (BT-549): 4.87 µM | CC50 (BT-549): 17.1 µM | GI50 (SF-539): 2.52 µM | CC50 (SF-539): 6.78 µM | GI50 (NCI-H23): 4.17 µM | CC50 (NCI-H23): 15.6 µM | GI50 (U251): 1.99 µM | CC50 (U251): 4.41 µM | GI50 (SF-268): 3.89 µM | CC50 (SF-268): 16.4 µM | GI50 (HOP-92): 2.49 µM | CC50 (HOP-92): 6.51 µM | GI50 (RXF 393): 2.26 µM | CC50 (RXF 393): 7.51 µM | GI50 (SNB-75): 2.88 µM | CC50 (SNB-75): 16 µM | GI50 (SK-MEL-5): 2.91 µM | CC50 (SK-MEL-5): 11.1 µM | GI50 (MOLT-4): 2.5 µM | CC50 (MOLT-4): 6.49 µM | activity at 10 µM (60 cancer cell lines): -70.5% | GI50 (NCI-H322M): 4.24 µM | CC50 (NCI-H322M): 17.8 µM | GI50 (HS 578T): 6.3 µM | CC50 (HS 578T): 71.5 µM | GI50 (A549/ATCC): 3.41 µM | CC50 (A549/ATCC): 14.2 µM

CN(C)c1nc(NCCNS(=O)(=O)c2ccc(C(=O)/C=C/c3ccc(C(F)(F)F)cc3)cc2)nc(Nc2ccc(F)cc2)n1 [24g]
GI50 (786-0): 10.6 µM | CC50 (786-0): 22.7 µM | GI50 (UO-31): 6.41 µM | CC50 (UO-31): 19.9 µM | GI50 (MDA-MB-231/ATCC): 8.38 µM | CC50 (MDA-MB-231/ATCC): 20.8 µM | GI50 (UACC-62): 6.24 µM | CC50 (UACC-62): 19.4 µM | GI50 (PC-3): 4.15 µM | CC50 (PC-3): 18.2 µM | GI50 (LOX IMVI): 1.86 µM | CC50 (LOX IMVI): 3.84 µM | GI50 (HCT-15): 3.22 µM | CC50 (HCT-15): 11.9 µM | GI50 (HT29): 1.91 µM | CC50 (HT29): 3.95 µM | GI50 (MDA-MB-468): 4.53 µM | CC50 (MDA-MB-468): 17 µM | GI50 (ACHN): 5.08 µM | CC50 (ACHN): 17.4 µM | GI50 (COLO 205): 11.2 µM | CC50 (COLO 205): 24.8 µM | GI50 (SNB-19): 12 µM | CC50 (SNB-19): 24.3 µM | GI50 (OVCAR-3): 2.04 µM | CC50 (OVCAR-3): 5.61 µM | GI50 (A498): 13 µM | CC50 (A498): 26.2 µM | GI50 (HCC-2998): 1.77 µM | CC50 (HCC-2998): 3.61 µM | GI50 (HCT-116): 1.68 µM | CC50 (HCT-116): 3.13 µM | GI50 (UACC-257): 11 µM | CC50 (UACC-257): 25 µM | GI50 (NCI-H226): 7.82 µM | CC50 (NCI-H226): 24.7 µM | GI50 (EKVX): 4.2 µM | CC50 (EKVX): 15.7 µM | GI50 (M14): 3.39 µM | CC50 (M14): 12.9 µM | GI50 (RPMI-8226): 3 µM | CC50 (RPMI-8226): > 100 µM | GI50 (HOP-62): 13.6 µM | CC50 (HOP-62): 27.7 µM | GI50 (SF-295): 11.3 µM | CC50 (SF-295): 23.5 µM | GI50 (BT-549): 12.7 µM | CC50 (BT-549): 25.6 µM | GI50 (SF-539): 10.7 µM | CC50 (SF-539): 22.5 µM | GI50 (NCI-H23): 11.2 µM | CC50 (NCI-H23): 24.2 µM | GI50 (U251): 3.42 µM | CC50 (U251): 13 µM | GI50 (SF-268): 7.71 µM | CC50 (SF-268): 22.5 µM | GI50 (HOP-92): 6.15 µM | CC50 (HOP-92): 20.7 µM | GI50 (RXF 393): 3.7 µM | CC50 (RXF 393): 16 µM | GI50 (SNB-75): 8.41 µM | CC50 (SNB-75): 22.7 µM | GI50 (SK-MEL-5): 10.4 µM | CC50 (SK-MEL-5): 22.2 µM | GI50 (MOLT-4): 2.9 µM | CC50 (MOLT-4): 9.61 µM | activity at 10 µM (60 cancer cell lines): -27.2% | GI50 (NCI-H322M): 11.6 µM | CC50 (NCI-H322M): 24.3 µM | GI50 (HS 578T): 12.7 µM | CC50 (HS 578T): 49.5 µM | GI50 (A549/ATCC): 10 µM | CC50 (A549/ATCC): 25.4 µM
